According to paper PMC6923474 (Scientific Reports, 2019):
Entries after “also recorded” stand apart in the source; their conditions may differ. Where two headings read alike, the source gives them in different places.

What was measured:
[1] = test system: GluN1/GluN2A NMDARs; set-up: method as in PMID 28877967; conditions: Ca2+-dependent manner; not GluN1/GluN2B receptors; cited from earlier work
[2] = test system: NMDARs; conditions: cited from earlier work
[3] = test system: NMDA receptors (NMDARs); test: Whole-cell patch-clamp of NMDA-activated currents in primary cultures of cortical neurons; assay type: cell-based, rat
Description: All manipulations on animals were performed in accordance with the guide of the Federation for Laboratory Animal Science Associations and were approved by the Animal Care and Use Committees of Sechenov Institute. Briefly, 16 days pregnant Wistar rats (14 female rats used in this study, supplied by the Sechenov Institute Animal Facility) were placed in a plastic box connected to a CO2 tank by a tube and then sacrificed by 1 min CO2 inhalation. Fetuses were removed and then primary cultures of rat cortical neurons were prepared using conventional procedures as described earlier[27],[66]. Neurons were grown in Neurobasal culture medium supplemented with B-27 (Gibco-Invitrogen, UK) on glass coverslips coated with poly-D-lysine and were used for experiments after 10–15 days in culture[66],[67].
Whole-cell currents were recorded from cultured rat cortical neurons using a MultiClamp 700B patch-clamp amplifier with Digidata 1440 A controlled by pClamp v10.2 software (Molecular Devices). Recordings were 8-order low-pass filtered at 200 Hz and the acquisition rate was 20000 samples per second. Solution exchange was performed by means of a fast solution application system as described earlier. Unless otherwise specified, the external bathing solution contained (in mM): 140 NaCl; 2.8 KCl; 1.0 CaCl2; 10 HEPES, at pH 7.2–7.4, osmolarity 310 mOsm. The intrapipette solution contained (in mM): 120 CsF, 10 CsCl, 10 EGTA, and 10 HEPES, osmolarity 300 mOsm[14], with pH adjusted to 7.4 with CsOH. Patch pipettes of 2–4 MΩ were pulled from Sutter BF150-89-10 borosilicate capillaries. Experiments were performed at 23–25 °C. Under control conditions, neurons were voltage clamped at −70 mV. Data are reported without corrections for liquid junction potential, which was measured as −11 mV. To activate NMDARs, 100 µM NMDA and 30 µM glycine were co-applied. Some experiments were performed on neurons loaded with BAPTA. To load BAPTA, cortical neuron cultures were incubated in bathing solution containing 10 µM BAPTA-AM for 2 hours.
Whole-cell membrane currents activated by NMDA were measured at steady state. The fraction of blocked current was calculated as 1 − Ib/Ic, where Ic is the amplitude of current activated by agonists and Ib is the amplitude of current activated by agonists in the presence of blocker.
Amplitudes of currents measured in the presence of blocker were normalized to maximal current response in control (Ic). […]
The obtained values were fitted with the Woodhull equation[36]:6 IC50(Vm)=IC50(0mV)⋅exp(VmzδF/RT) where IC50(0 mV) and δ were set as free parameters. […] For Faraday constant, gas constant and room temperature of 25 °C the RT/F ≈ 25.7 mV.
The rise time of currents activated by the testing NMDA + Gly application in trapping channel block experiments was fit in ClampFit (pClamp, Axon Instruments) using the double exponential function:7 I=I1·exp(−t/τ1)+I2⋅exp(−t/τ2)−C where I1 and I2 are amplitudes of the exponential and τ1 and τ2 are time constants of the exponential and C equals I1 + I2 + Ib.

[4] = cited from earlier work

CC12CC3CC(C)(C1)CC(N)(C3)C2 [memantine]
effect on recovery from desensitization [1]: slows the rate of recovery from desensitization of GluN1/GluN2A NMDARs
δ, fraction of the membrane electric field ([2]; by different estimates): 0.65–0.91

NC12CC3CC(CC(C3)C1)C2 [amantadine]
δ, fraction of the membrane electric field [2]: 0.72

Br.Br.NCCCCCNCC12CC3CC(CC(C3)C1)C2 [IEM-1754, N-(tricyclo[3.3.1.13,7]dec-1-ylmethyl)-1,5-pentanediamine dihydrobromide]
Ca2+ dependence of block of NMDA-activated currents ([3]; 10 μM IEM-1754, −70 mV, 2 mM vs 0.25 mM Ca2+): resistant to a 4-fold increase of [Ca^2+]

CN(C)CCC=C1c2ccccc2CCc2ccccc21 [ATL, amitriptyline]
ATL concentrations required for the NMDAR channel block [2]: 15 to 60 µM
therapeutic window for ATL concentrations in the blood plasma ([4]; blood plasma): 0.3 to 1 µM
ATL concentration in brain tissue ([4]; brain tissue): ≤ 10 µM
concentrations showing voltage-dependent open-channel block of NMDARs [3]: > 70 µM
decrease of IC50 per 1 mM increase of external [Ca2+] [3]: roughly 5 fold
voltage dependence of block of NMDAR currents ([3]; 10 μM ATL, 1 mM Ca2+, −70 mV vs −30 mV): voltage dependence was not observed; also recorded: voltage-independent
Ca2+ dependence of inhibition of NMDAR currents ([3]; 10 μM ATL, −70 mV, 2 mM vs 0.25 mM Ca2+): far more pronounced in 2 mM Ca^2+- than in 0.25 Ca^2+- containing media
voltage dependence of block of NMDAR currents ([3]; 20 μM ATL, 2 mM Ca2+, −40 mV to +40 mV): did not find any voltage dependence
effect on closed NMDARs (ATL applied prior to NMDA) ([3]; 100 μM ATL, 0.25 mM or 2 mM Ca2+, −70 mV): did not significantly affect currents activated by NMDA
voltage dependence of block of NMDAR currents ([3]; 100 μM ATL, 1 mM Ca2+, −70 mV vs −30 mV): depended on membrane voltage; also recorded: voltage-dependent
type of open-channel block (trapping protocol) ([3]; 200 µM ATL, 0.25 mM Ca2+, −70 mV): did not cause tail currents; also recorded: partial trapping
τs, slow rise time constant of test current (ATL unblock) ([3]; 200 µM ATL, washout delay 0.5 s, −70 mV, 0.25 mM Ca2+): 11 ± 3.2 s
τs, slow rise time constant of test current (ATL unblock) ([3]; 200 µM ATL, washout delay 1 s, −70 mV, 0.25 mM Ca2+): 13 ± 5.7 s
τs, slow rise time constant of test current (ATL unblock) ([3]; 200 µM ATL, washout delay 2 s, −70 mV, 0.25 mM Ca2+): 13.2 ± 4.0 s
τs, slow rise time constant of test current (ATL unblock) ([3]; 200 µM ATL, washout delay 4 s, −70 mV, 0.25 mM Ca2+): 15 ± 2.9 s
voltage shift giving an e-fold change of IC50 ([3]; 0.25 mM Ca2+): 50 mV
δ, fraction of the membrane electric field (Woodhull model) ([3]; 0.25 mM Ca2+, Eq. 6): 0.51
fraction of ATL inhibition of NMDAR currents (1-Ib/Ic) ([3]; ATL 10 μM, −30 mV, [Ca2+] 0.25 mM): 0.12 ± 0.05
fraction of ATL inhibition of NMDAR currents (1-Ib/Ic) ([3]; ATL 10 μM, −30 mV, [Ca2+] 2 mM): 0.30 ± 0.05
fraction of ATL inhibition of NMDAR currents (1-Ib/Ic) ([3]; ATL 10 μM, −70 mV, [Ca2+] 0.25 mM): 0.13 ± 0.06
fraction of ATL inhibition of NMDAR currents (1-Ib/Ic) ([3]; ATL 10 μM, −70 mV, [Ca2+] 2 mM): 0.42 ± 0.04
fraction of ATL inhibition of NMDAR currents (1-Ib/Ic) ([3]; ATL 100 μM, −30 mV, [Ca2+] 0.25 mM): 0.40 ± 0.07
fraction of ATL inhibition of NMDAR currents (1-Ib/Ic) ([3]; ATL 100 μM, −30 mV, [Ca2+] 2 mM): 0.35 ± 0.04
fraction of ATL inhibition of NMDAR currents (1-Ib/Ic) ([3]; ATL 100 μM, −70 mV, [Ca2+] 0.25 mM): 0.79 ± 0.05
fraction of ATL inhibition of NMDAR currents (1-Ib/Ic) ([3]; ATL 100 μM, −70 mV, [Ca2+] 2 mM): 0.79 ± 0.03
IC50 ([3]; [Ca2+] 2–4 mM, read-out: IC50 values at physiological extracellular [Ca2+]): 0.7 to 7 µM
fraction of ATL inhibition of NMDAR currents (1-Ib/Ic) ([3]; co-application of agonists and 100 μM ATL, −70 mV, [Ca2+] 0.25 mM): 0.85 ± 0.06
fraction of ATL inhibition of NMDAR currents (1-Ib/Ic) ([3]; co-application of agonists and 100 μM ATL, −70 mV, [Ca2+] 2 mM): 0.85 ± 0.05
IC50 ([3]; extrapolated to 0 mM Ca2+, −70 mV, read-out: IC50 at [Ca2+] = 0, single exponential approximation): 91 µM
IC50 ([3]; extrapolated to 0 mV, 0.25 mM Ca2+, read-out: IC50 (0 mV), fit with Woodhull equation (Eq. 6)): 220 µM
[Ca2+] shift giving an e-fold change of IC50 (b value), optimized ([3]; optimized by fitting all data with IC50(Vm,[Ca2+]) equation): 690 µM
fraction of ATL inhibition of NMDAR currents (1-Ib/Ic) ([3]; pre-application of 100 μM ATL, −70 mV, [Ca2+] 0.25 mM): 0.12 ± 0.01
fraction of ATL inhibition of NMDAR currents (1-Ib/Ic) ([3]; pre-application of 100 μM ATL, −70 mV, [Ca2+] 2 mM): 0.17 ± 0.03
IC50 ([3]; read-out: IC50 for ATL inhibition of NMDAR currents, −30 mV, 0.25 mM Ca2+): 129 µM
IC50 ([3]; read-out: IC50 for ATL inhibition of NMDAR currents, −70 mV, 0.25 mM Ca2+ in bathing solution, 100 μM NMDA + 30 μM Gly): 63 ± 9.3 µM
IC50 ([3]; read-out: IC50 for ATL inhibition of NMDAR currents, −70 mV, 0.5 mM Ca2+, 100 μM NMDA + 30 μM Gly): 37.6 ± 7.7 µM
IC50 ([3]; read-out: IC50 for ATL inhibition of NMDAR currents, −70 mV, 1 mM Ca2+, BAPTA-loaded neurons): 106 ± 9.5 µM
IC50 ([3]; read-out: IC50 for ATL inhibition of NMDAR currents, −70 mV, 1 mM Ca2+, control (intact) neurons): 21.6 ± 8.7 µM
IC50 ([3]; read-out: IC50 for ATL inhibition of NMDAR currents, −70 mV, 2 mM Ca2+): 4.9 ± 1 µM
IC50 ([3]; read-out: IC50 for ATL inhibition of NMDAR currents, −70 mV, 4 mM Ca2+): 0.72 µM
IC50 ([3]; read-out: IC50 for ATL inhibition of NMDAR currents, −100 mV, 0.25 mM Ca2+): 34.2 ± 9.8 µM
[Ca2+] shift giving an e-fold change of IC50 (b value) ([3]; single exponential fit of IC50 vs [Ca2+], −70 mV): 630 µM
Hill coefficient h ([3]; −70 mV, 0.25 mM Ca2+): 1.4 ± 0.1
rate constant of binding (kon) ([3]; −70 mV, 0.25 mM Ca2+, Eq. 3): 1600 ± 90 M⁻¹ s⁻¹
rate constant of dissociation (koff) ([3]; −70 mV, 0.25 mM Ca2+, Eq. 4): 0.204 ± 0.005 s⁻¹
Kd ([3]; −70 mV, 0.25 mM Ca2+, Eq. 5, read-out: apparent equilibrium dissociation constant (Kd = koff/kon)): 128 ± 7.8 µM
Hill coefficient h ([3]; −70 mV, 0.5 mM Ca2+): 1.5 ± 0.1
Hill coefficient h ([3]; −70 mV, 1 mM Ca2+): 1.6 ± 0.5
Hill coefficient h ([3]; −70 mV, 2 mM Ca2+): 1.2 ± 0.1
Hill coefficient h ([3]; −70 mV, 4 mM Ca2+): 1.5 ± 0.2

CNC1(c2ccccc2Cl)CCCCC1=O (centres unmarked) [ketamine]
sensitivity of NMDAR block to external [Ca2+] [2]: no sensitivity to changes in external [Ca^2+]
δ, fraction of the membrane electric field [2]: 0.55
